In patent US6737383B1, “Herbicidal oxadiazolidines” (priority 1999, dated 2004):

Legend:
sugar beet = assay: Test B pre/postemergence sugar beet; format: in vivo, Beta vulgaris
Procedure, shortened: (§1)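 Response is a visual 0-to-10 score relative to untreated plants, where 0 means no effect and 10 means complete control, taken twelve to sixteen days after application. Treatments went onto soil at planting and onto foliage of 1- to 4-leaf plants, using a surfactant-containing non-phytotoxic solvent.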

bamyardgrass = assay: Test B flood test barnyardgrass; format: in vivo, Echinochloa crus-galli
Procedure, shortened: (§2)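 Each value is a visual injury score relative to controls, with 10 meaning complete control and 0 no effect. Evaluation took place twelve to sixteen days after the 2-leaf-stage plants were treated and kept in the greenhouse.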

blackgrass = assay: Test B pre/postemergence blackgrass; format: in vivo, Alopecurus myosuroides
Procedure, shortened: as §1

surinam grass = assay: Test B pre/postemergence surinam grass; format: in vivo, Brachiaria decumbens
Procedure, shortened: as §1

duck salad = assay: Test B flood test duck salad; format: in vivo, Heteranthera limosa
Procedure, shortened: as §2

purple nutsedge = assay: Test B pre/postemergence purple nutsedge; format: in vivo, Cyperus rotundus
Procedure, shortened: as §1

morningglory = assay: Test B pre/postemergence morningglory; format: in vivo, Ipomoea hederacea
Procedure, shortened: as §1

cocklebur = assay: Test B pre/postemergence cocklebur; format: in vivo, Xanthium strumarium
Procedure, shortened: as §1

giant foxtail = assay: Test B pre/postemergence giant foxtail; format: in vivo, Setaria faberii
Procedure, shortened: as §1

velvetleaf = assay: Test B pre/postemergence velvetleaf; format: in vivo, Abutilon theophrasti
Procedure, shortened: as §1

smallflower flatsedge = assay: Test B flood test smallflower flatsedge; format: in vivo, Cyperus difformis
Procedure, shortened: as §2

wheat = assay: Test B pre/postemergence wheat; format: in vivo, Triticum aestivum
Procedure, shortened: as §1

soybean = assay: Test B pre/postemergence soybean; format: in vivo, Glycine max
Procedure, shortened: as §1

crabgrass = assay: Test B pre/postemergence crabgrass; format: in vivo, Digitaria sanguinalis
Procedure, shortened: as §1

rice = assay: Test B flood test rice; format: in vivo, Oryza sativa
Procedure, shortened: as §2

bedstraw = assay: Test B pre/postemergence bedstraw; format: in vivo, Galium aparine
Procedure, shortened: as §1

pigweed = assay: Test B pre/postemergence pigweed; format: in vivo, Amaranthus retroflexus
Procedure, shortened: as §1

rape = assay: Test B pre/postemergence rape; format: in vivo, Brassica napus
Procedure, shortened: as §1

wild oat = assay: Test B pre/postemergence wild oat; format: in vivo, Avena fatua
Procedure, shortened: as §1

corn = assay: Test B pre/postemergence corn; format: in vivo, Zea mays
Procedure, shortened: as §1

[1] = Preemergence, Rate 62 g/ha, scale of 0 to 10 where 0 is no effect and 10 is complete control
[2] = Preemergence, Rate 250 g/ha, scale of 0 to 10 where 0 is no effect and 10 is complete control
[3] = Preemergence, Rate 500 g/ha, scale of 0 to 10 where 0 is no effect and 10 is complete control
[4] = Rate 125 g/ha, Preemergence, scale of 0 to 10 where 0 is no effect and 10 is complete control
[5] = Rate 500 g/ha, Postemergence, scale 0 to 10, 0 no effect, 10 complete control
[6] = Rate 62 g/ha, headed Pre-emergence (flood test species), scale 0 to 10 (0 no effect, 10 complete control)
[7] = Rate 125 g/ha, Pre-emergence, flood test species, scale 0 to 10 where 0 is no effect and 10 is complete control
[8] = Rate 250 g/ha, Pre-emergence, flood-test species, scale 0 to 10, 0 is no effect, 10 is complete control
[9] = Rate 500 g/ha, Pre-emergence, flood test species, scale 0 to 10 (0 no effect, 10 complete control)
[10] = Rate 62 g/ha, Postemergence, scale of 0 to 10 where 0 is no effect and 10 is complete control
[11] = Rate 125 g/ha, Postemergence, scale 0 to 10

## COC(=O)CCCn1c(=O)on(C(=O)N(c2ccc(F)cc2)C(C)C)c1=O [Compound 266]
Sugar beet; [1]
  Sugarbeets plant response rating: 0
Sugar beet; [2]
  Sugarbeets plant response rating: 7
Sugar beet; [3]
  Plant response rating, Sugarbeets: 7
Sugar beet; [4]
  Sugarbeets plant response rating: 5
Sugar beet; [5]
  Sugarbeets plant response rating: 7
bamyardgrass; [6]
  Barnyardgrass plant response rating: 0
bamyardgrass; [7]
  Barnyardgrass plant response rating: 0
bamyardgrass; [8]
  Barnyardgrass plant response rating: 0
bamyardgrass; [9]
  Barnyardgrass plant response rating: 0
blackgrass; [1]
  Blackgrass plant response rating: 8
blackgrass; [2]
  Blackgrass plant response rating: 9
blackgrass; [3]
  Plant response rating, Blackgrass: 9
blackgrass; [10]
  Blackgrass plant response rating: 3
blackgrass; [11]
  Blackgrass plant response rating: 5
blackgrass; [4]
  Blackgrass plant response rating: 8
blackgrass; Rate 250 g/ha, Postemergence
  Plant response rating (0 to 10; 0 is no effect, 10 is complete control), Blackgrass: 6
blackgrass; [5]
  Blackgrass plant response rating: 8
Surinam grass; [1]
  B. signalgrass plant response rating: 0
Surinam grass; [2]
  B. signalgrass plant response rating: 0
Surinam grass; [3]
  Plant response rating, B. signalgrass: 7
Surinam grass; [10]
  B. signalgrass plant response rating: 0
Surinam grass; Rate 125 g/ha, Postemergence, scale 0 (no effect) to 10 (complete control)
  B. signalgrass plant response rating: 0
Surinam grass; [4]
  B. signalgrass plant response rating: 0
Surinam grass; Rate 250 g/ha, Postemergence
  Plant response rating (0 to 10; 0 is no effect, 10 is complete control), B. signalgrass: 0
Surinam grass; [5]
  B. signalgrass plant response rating: 2
Duck salad; [6]
  Ducksalad plant response rating: 0
Duck salad; [7]
  Ducksalad plant response rating: 0
Duck salad; [8]
  Ducksalad plant response rating: 0
Duck salad; [9]
  Ducksalad plant response rating: 0
Purple nutsedge; [2]
  Nutsedge plant response rating: 0
Purple nutsedge; [3]
  Plant response rating, Nutsedge: 0
Purple nutsedge; [4]
  Nutsedge plant response rating: 0
Purple nutsedge; Rate 250 g/ha, Postemergence
  Plant response rating (0 to 10; 0 is no effect, 10 is complete control), Nutsedge: 0
Purple nutsedge; [5]
  Nutsedge plant response rating: 3
morningglory; [1]
  Morningglory plant response rating: 0
morningglory; [2]
  Morningglory plant response rating: 0
morningglory; [3]
  Plant response rating, Morningglory: 1
morningglory; [4]
  Morningglory plant response rating: 0
morningglory; Rate 250 g/ha, Postemergence
  Plant response rating (0 to 10; 0 is no effect, 10 is complete control), Morningglory: 5
morningglory; [5]
  Morningglory plant response rating: 8
cocklebur; [1]
  Cocklebur plant response rating: 0
cocklebur; [2]
  Cocklebur plant response rating: 0
cocklebur; [3]
  Plant response rating, Cocklebur: 0
cocklebur; [10]
  Cocklebur plant response rating: 0
cocklebur; [11]
  Cocklebur plant response rating: 0
cocklebur; [4]
  Cocklebur plant response rating: 0
cocklebur; Rate 250 g/ha, Postemergence
  Plant response rating (0 to 10; 0 is no effect, 10 is complete control), Cocklebur: 2
cocklebur; [5]
  Cocklebur plant response rating: 2
Giant foxtail; [1]
  Giant foxtail plant response rating: 0
Giant foxtail; [2]
  Giant foxtail plant response rating: 6
Giant foxtail; [3]
  Plant response rating, Giant foxtail: 8
Giant foxtail; [4]
  Giant foxtail plant response rating: 4
Giant foxtail; Rate 250 g/ha, Postemergence
  Plant response rating (0 to 10; 0 is no effect, 10 is complete control), Giant foxtail: 5
Giant foxtail; [5]
  Giant foxtail plant response rating: 7
velvetleaf; [1]
  Velvetleaf plant response rating: 0
velvetleaf; [2]
  Velvetleaf plant response rating: 0
velvetleaf; [3]
  Plant response rating, Velvetleaf: 4
velvetleaf; [4]
  Velvetleaf plant response rating: 0
velvetleaf; [5]
  Velvetleaf plant response rating: 5
Smallflower flatsedge; [6]
  S. Flatsedge plant response rating: 0
Smallflower flatsedge; [7]
  S. Flatsedge plant response rating: 0
Smallflower flatsedge; [8]
  S. Flatsedge plant response rating: 0
Smallflower flatsedge; [9]
  S. Flatsedge plant response rating: 0
wheat; [1]
  Wheat plant response rating: 0
wheat; [2]
  Wheat plant response rating: 4
wheat; [3]
  Plant response rating, Wheat: 6
wheat; [4]
  Wheat plant response rating: 0
wheat; [5]
  Wheat plant response rating: 6
soybean; [1]
  Soybean plant response rating: 0
soybean; [2]
  Soybean plant response rating: 0
soybean; [3]
  Plant response rating, Soybean: 0
soybean; [4]
  Soybean plant response rating: 0
soybean; [5]
  Soybean plant response rating: 8
crabgrass; [1]
  Crabgrass plant response rating: 0
crabgrass; [2]
  Crabgrass plant response rating: 5
crabgrass; [3]
  Plant response rating, Crabgrass: 6
crabgrass; [4]
  Crabgrass plant response rating: 1
crabgrass; Rate 250 g/ha, Postemergence
  Plant response rating (0 to 10; 0 is no effect, 10 is complete control), Crabgrass: 3
crabgrass; [5]
  Crabgrass plant response rating: 5
rice; [6]
  Rice plant response rating: 0
rice; [7]
  Rice plant response rating: 0
rice; [8]
  Rice plant response rating: 0
rice; [9]
  Rice plant response rating: 0
bedstraw; [1]
  Bedstraw plant response rating: 0
bedstraw; [2]
  Bedstraw plant response rating: 8
bedstraw; [3]
  Plant response rating, Bedstraw: 9
bedstraw; [10]
  Bedstraw plant response rating: 0
bedstraw; [11]
  Bedstraw plant response rating: 0
bedstraw; [4]
  Bedstraw plant response rating: 3
bedstraw; Rate 250 g/ha, Postemergence
  Plant response rating (0 to 10; 0 is no effect, 10 is complete control), Bedstraw: 5
bedstraw; [5]
  Bedstraw plant response rating: 6
pigweed; [1]
  Redroot pigweed plant response rating: 0
pigweed; [2]
  Redroot pigweed plant response rating: 6
pigweed; [3]
  Plant response rating, Redroot pigweed: 9
pigweed; [4]
  Redroot pigweed plant response rating: 0
pigweed; Rate 250 g/ha, Postemergence
  Plant response rating (0 to 10; 0 is no effect, 10 is complete control), Redroot pigweed: 5
pigweed; [5]
  Redroot pigweed plant response rating: 7
rape; [1]
  Rape plant response rating: 0
rape; [2]
  Rape plant response rating: 5
rape; [3]
  Plant response rating, Rape: 5
rape; [4]
  Rape plant response rating: 0
rape; Rate 250 g/ha, Postemergence
  Plant response rating (0 to 10; 0 is no effect, 10 is complete control), Rape: 6
rape; [5]
  Rape plant response rating: 7
Wild oat; [1]
  Wild oats plant response rating: 0
Wild oat; [2]
  Wild oats plant response rating: 5
Wild oat; [3]
  Plant response rating, Wild oats: 7
Wild oat; [4]
  Wild oats plant response rating: 2
Wild oat; [5]
  Wild oats plant response rating: 2
corn; [1]
  Corn plant response rating: 0
corn; [2]
  Corn plant response rating: 0
corn; [3]
  Plant response rating, Corn: 0
corn; [10]
  Corn plant response rating: 0
corn; [11]
  Corn plant response rating: 0
corn; [4]
  Corn plant response rating: 0
corn; Rate 250 g/ha, Postemergence
  Plant response rating (0 to 10; 0 is no effect, 10 is complete control), Corn: 0
corn; [5]
  Corn plant response rating: 0
